biological target: T1, RAC-alpha serine/threonine-protein kinase [139-480,S378A,S381A,T450D,S473D] (Homo sapiens, UniProt P31749, S378A/S381A/S473D/T450D); assay: Akt Kinase Assay; conditions: not given
T1 construct: 139-480
Procedure: (§1) The kinase assay uses His-Akt1 and a biotinylated peptide as substrate. The biotinylated peptides were immobilized on streptavidin-coated FLASH plates. After reaction, the 33P-phosphopeptide captured on the FLASH plates was measured with a TopCount Packard Instruments […] (Packard Instruments, Boston, MA).

T1 sequence (P31749 139-480 S378A/S381A/T450D/S473D): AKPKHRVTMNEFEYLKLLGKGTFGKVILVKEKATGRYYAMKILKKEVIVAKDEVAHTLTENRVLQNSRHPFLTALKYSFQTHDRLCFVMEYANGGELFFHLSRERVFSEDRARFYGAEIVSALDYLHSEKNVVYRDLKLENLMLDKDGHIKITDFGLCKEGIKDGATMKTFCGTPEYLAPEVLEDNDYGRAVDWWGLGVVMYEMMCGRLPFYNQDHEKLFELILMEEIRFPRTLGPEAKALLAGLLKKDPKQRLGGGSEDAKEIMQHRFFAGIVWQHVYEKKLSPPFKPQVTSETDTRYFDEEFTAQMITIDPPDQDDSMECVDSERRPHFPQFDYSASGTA

Compound | IC50 [nM]
N[C@H](COc1cncc(-c2ccc3cnc(-c4ccco4)cc3c2)c1)Cc1c[nH]c2ccccc12 [6-{5-[(2S)-2-amino-3-(1H-indol-3-yl)propoxy]pyridin-3-yl}-3-(furan-2-yl)isoquinoline] | 57
N[C@H](COc1cncc(-c2ccc3cnc(-c4ccncc4)cc3c2)c1)Cc1c[nH]c2ccccc12 [6-{5-[(2S)-2-amino-3-(1H-indol-3-yl)propoxy]pyridin-3-yl}-3-(pyridin-4-yl)isoquinoline] | 122
N[C@H](COc1cncc(-c2ccc3cnc(Cl)cc3c2)c1)Cc1c[nH]c2ccccc12 [6-{5-[(2S)-2-amino-3-(1H-indol-3-yl)propoxy]pyridin-3-yl}-3-chloroisoquinoline] | 407
Nc1c(-c2cncc(OC[C@@H](N)Cc3c[nH]c4ccccc34)c2)ccc2cnccc12 [6-{5-[(2S)-2-amino-3-(1H-indol-3-yl)propoxy]pyridin-3-yl}isoquinolin-5-amine] | 15
CC#Cc1cc2cc(-c3cncc(OC[C@@H](N)Cc4c[nH]c5ccccc45)c3)ccc2cn1 [6-{5-[(2S)-2-amino-3-(1H-indol-3-yl)propoxy]pyridin-3-yl}-3-(prop-1-yn-1-yl)isoquinoline] | 180
C=Cc1cc2cc(-c3cncc(OC[C@@H](N)Cc4c[nH]c5ccccc45)c3)ccc2cn1 [6-{5-[(2S)-2-amino-3-(1H-indol-3-yl)propoxy]pyridin-3-yl}-3-ethenylisoquinoline] | 22
Nc1cc2cc(-c3cncc(OC[C@@H](N)Cc4c[nH]c5ccccc45)c3)ccc2cn1 [6-{5-[(2S)-2-amino-3-(1H-indol-3-yl)propoxy]pyridin-3-yl}isoquinolin-3-amine] | 3.4
N[C@H](COc1cncc(-c2ccc3cnc(-c4ccccc4)cc3c2)c1)Cc1c[nH]c2ccccc12 [6-{5-[(2S)-2-amino-3-(1H-indol-3-yl)propoxy]pyridin-3-yl}-3-phenylisoquinoline] | 305
Cc1cc(-c2cncc(OC[C@@H](N)Cc3c[nH]c4ccccc34)c2)cc2ccncc12 [6-{5-[(2S)-2-amino-3-(1H-indol-3-yl)propoxy]pyridin-3-yl}-8-methylisoquinoline] | 995
N[C@H](COc1cncc(-c2ccc3cnc(C#Cc4ccccc4)cc3c2)c1)Cc1c[nH]c2ccccc12 [6-{5-[(2S)-2-amino-3-(1H-indol-3-yl)propoxy]pyridin-3-yl}-3-(2-phenylethynyl)isoquinoline] | 56
CCc1cc2cc(-c3cncc(OC[C@@H](N)Cc4c[nH]c5ccccc45)c3)ccc2cn1 [6-{5-[(2S)-2-amino-3-(1H-indol-3-yl)propoxy]pyridin-3-yl}-3-ethylisoquinoline] | 144
N#Cc1cc2cc(-c3cncc(OC[C@@H](N)Cc4c[nH]c5ccccc45)c3)ccc2cn1 [6-{5-[(2S)-2-amino-3-(1H-indol-3-yl)propoxy]pyridin-3-yl}isoquinoline-3-carbonitrile] | 640
N[C@H](COc1cncc(-c2ccc3cnc(F)cc3c2)c1)Cc1c[nH]c2ccccc12 [6-{5-[(2S)-2-amino-3-(1H-indol-3-yl)propoxy]pyridin-3-yl}-3-fluoroisoquinoline] | 3.5

same assay, conditions: pH 7.5; 22 °C

Compound | IC50 [nM]
N[C@H](COc1cnc(-c2ccco2)c(-c2ccc3cnccc3c2)c1)Cc1c[nH]c2ccccc12 [6-{5-[(2S)-2-amino-3-(1H-indol-3-yl)propoxy]-2-(furan-2-yl)pyridin-3-yl}isoquinoline] | 1.5
C#Cc1ncc(OC[C@@H](N)Cc2c[nH]c3ccccc23)cc1-c1ccc2cnccc2c1 [6-{5-[(2S)-2-amino-3-(1H-indol-3-yl)propoxy]-2-ethynylpyridin-3-yl}isoquinoline] | 0.8
N[C@H](COc1cnc(Cl)c(-c2ccc3cnccc3c2)c1)Cc1c[nH]c2ccccc12 [6-{5-[(2S)-2-amino-3-(1H-indol-3-yl)propoxy]-2-chloropyridin-3-yl}isoquinoline] | 1.8
N[C@H](COc1cncc(-c2ccc3cnccc3c2)c1)Cc1c[nH]c2ccccc12 [13a (S-)] | 2
N[C@H](COc1cnc(C#Cc2ccccc2)c(-c2ccc3cnccc3c2)c1)Cc1c[nH]c2ccccc12 [6-{5-[(2S)-2-amino-3-(1H-indol-3-yl)propoxy]-2-(2-phenylethynyl)pyridin-3-yl}isoquinoline] | 1240
Cc1c(OC[C@@H](N)Cc2c[nH]c3ccccc23)cncc1-c1ccc2cnccc2c1 [6-{5-[(2S)-2-amino-3-(1H-indol-3-yl)propoxy]-4-methylpyridin-3-yl}isoquinoline] | 84
N[C@H](COc1cncc(-c2ccc3c(Cl)nccc3c2)c1)Cc1c[nH]c2ccccc12 [6-{5-[(2S)-2-amino-3-(1H-indol-3-yl)propoxy]pyridin-3-yl}-1-chloroisoquinoline] | 778
N#C/C=C/c1c(OC[C@@H](N)Cc2c[nH]c3ccccc23)cncc1-c1ccc2cnccc2c1 [(2E)-3-{3-[(2S)-2-amino-3-(1H-indol-3-yl)propoxy]-5-(isoquinolin-6-yl)pyridin-4-yl}prop-2-enenitrile] | 697
N#Cc1ncc(OC[C@@H](N)Cc2c[nH]c3ccccc23)cc1-c1ccc2cnccc2c1 [5-[(2S)-2-amino-3-(1H-indol-3-yl)propoxy]-3-(isoquinolin-6-yl)pyridine-2-carbonitrile] | 4.6
N[C@H](COc1cc(-c2ccc3cnccc3c2)cnc1Cl)Cc1c[nH]c2ccccc12 [6-{5-[(2S)-2-amino-3-(1H-indol-3-yl)propoxy]-6-chloropyridin-3-yl}isoquinoline] | 12
Nc1nccc2cc(-c3cncc(OC[C@@H](N)Cc4c[nH]c5ccccc45)c3)ccc12 [6-{5-[(2S)-2-amino-3-(1H-indol-3-yl)propoxy]pyridin-3-yl}isoquinolin-1-amine] | 160
C=Cc1ncc(OC[C@@H](N)Cc2c[nH]c3ccccc23)cc1-c1ccc2cnccc2c1 [6-{5-[(2S)-2-amino-3-(1H-indol-3-yl)propoxy]-2-ethenylpyridin-3-yl}isoquinoline] | 2
COc1nccc2cc(-c3cncc(OC[C@@H](N)Cc4c[nH]c5ccccc45)c3)ccc12 [6-{5-[(2S)-2-amino-3-(1H-indol-3-yl)propoxy]pyridin-3-yl}-1-methoxyisoquinoline] | 39500
N[C@H](COc1cncc(-c2ccc3c(=O)[nH]ccc3c2)c1)Cc1c[nH]c2ccccc12 [6-{5-[(2S)-2-amino-3-(1H-indol-3-yl)propoxy]pyridin-3-yl}isoquinolin-1-ol] | 1240
N[C@H](COc1cncc(-c2ccc3c(F)nccc3c2)c1)Cc1c[nH]c2ccccc12 [6-{5-[(2S)-2-amino-3-(1H-indol-3-yl)propoxy]pyridin-3-yl}-1-fluoroisoquinoline] | 227

biological target: T2, Protein kinase C zeta type (Homo sapiens, UniProt Q05513); assay: PKA/PKC Kinase Assay; conditions: pH 7.5; 22 °C
T2 sequence (Q05513 whole entry): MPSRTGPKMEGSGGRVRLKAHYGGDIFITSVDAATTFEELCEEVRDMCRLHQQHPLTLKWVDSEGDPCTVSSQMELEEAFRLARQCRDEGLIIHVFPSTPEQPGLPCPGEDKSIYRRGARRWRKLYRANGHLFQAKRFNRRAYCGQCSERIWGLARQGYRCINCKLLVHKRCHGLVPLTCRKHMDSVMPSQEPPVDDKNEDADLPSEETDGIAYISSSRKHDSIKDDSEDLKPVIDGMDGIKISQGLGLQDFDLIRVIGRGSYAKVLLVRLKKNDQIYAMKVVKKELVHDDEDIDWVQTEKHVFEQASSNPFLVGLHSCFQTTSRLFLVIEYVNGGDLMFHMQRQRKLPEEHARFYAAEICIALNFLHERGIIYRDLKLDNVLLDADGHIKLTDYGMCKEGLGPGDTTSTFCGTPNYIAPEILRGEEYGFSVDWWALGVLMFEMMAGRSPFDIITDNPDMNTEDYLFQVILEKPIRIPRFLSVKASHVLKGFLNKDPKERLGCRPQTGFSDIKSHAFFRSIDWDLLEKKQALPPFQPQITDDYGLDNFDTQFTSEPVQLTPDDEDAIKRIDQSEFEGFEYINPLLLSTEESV
Procedure: as §1, with “purified recombinant enzyme” for “His-Akt1”, “MA). IC50s were calculated using the sigmoidal curve fit with the Assay Explorer software (MDL, Los Angeles, CA).” for “MA).”

Compound | IC50 [nM]
N[C@H](COc1cnc(Cl)c(-c2ccc3cnccc3c2)c1)Cc1c[nH]c2ccccc12 [6-{5-[(2S)-2-amino-3-(1H-indol-3-yl)propoxy]-2-chloropyridin-3-yl}isoquinoline] | > 5000

From BindingDB's records for doi:10.1016/j.bmcl.2006.03.041 (Abbott Laboratories, 2006)
